Experimental data from PubChem BioAssay (NCI).
Where “and” joins values, the source holds several entries; their conditions need not be identical. Equal values may be shown once.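 Each compound was tested at five concentrations against cells in 96-well plates for 48 hours. The concentration for 50% growth inhibition is given as GI50. Definition used: TGI = concentration required for complete inhibition of growth.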

Columns and labels:
Test in all cases: NCI tumour cell line growth inhibition, 48 h
SF-268 CNS = system: SF-268 CNS
HT29 colon = system: HT29 colon
UO-31 renal = system: UO-31 renal
RXF 393 renal = system: RXF 393 renal
UACC-257 melanoma = system: UACC-257 melanoma
BT-549 breast = system: BT-549 breast
DU-145 prostate = system: DU-145 prostate
K-562 leukemia = system: K-562 leukemia
SF-295 CNS = system: SF-295 CNS
T-47D breast = system: T-47D breast

| Structure (SMILES) | GI50 (SF-268 CNS) | TGI (SF-268 CNS) | GI50 (HT29 colon) | TGI (HT29 colon) | GI50 (UO-31 renal) | TGI (UO-31 renal) | GI50 (RXF 393 renal) | TGI (RXF 393 renal) | GI50 (UACC-257 melanoma) | TGI (UACC-257 melanoma) | GI50 (BT-549 breast) | TGI (BT-549 breast) | GI50 (DU-145 prostate) | TGI (DU-145 prostate) | GI50 (K-562 leukemia) | TGI (K-562 leukemia) | GI50 (SF-295 CNS) | TGI (SF-295 CNS) | GI50 (T-47D breast) | TGI (T-47D breast) |
| --- | --- | --- | --- | --- | --- | --- | --- | --- | --- | --- | --- | --- | --- | --- | --- | --- | --- | --- | --- | --- |
| CC(C)(C)c1[nH]cnc1/C=c1\[nH]c(=O)/c(=C/c2ccccc2)[nH]c1=O | < 0.0123 µM | > 70.1 µM | < 0.01 µM | 9.44 µM | < 0.0144 µM | 27.6 µM | < 0.01 µM | 56.8 µM | 6.32 µM | 22.6 µM | 0.0139 µM | 12.1 µM | 0.0159 µM | 31.3 µM | < 0.01 µM | > 100 µM | < 0.01 µM | 20.5 µM | < 0.0592 µM | 30.9 µM |
| CC(=O)OCC(=O)O[C@@H]1C[C@]2(C(C)C)O[C@@]1(C)[C@@H]1CC[C@@H](C)[C@H]1[C@@H]2OC(=O)/C=C/c1ccccc1 | 2.65 µM | 62.2 µM | 23.6 µM | > 100 µM | 0.0336 µM | 0.242 µM | 0.211 µM | 2.01 µM | 23.6 µM | 87.4 µM | 0.0987 µM | 7 µM | 18.4 µM | 40.6 µM | 17.2 µM | > 100 µM | 17 µM | 43.9 µM | 8.81 µM | > 97.2 µM |
| Cc1noc(C)c1-c1cc(O)cc(C(O)c2ccccc2)c1 (stereo not given) | 39.3 µM | > 100 µM | 4.54 µM | > 100 µM | 1.08 µM | > 100 µM | 4.58 µM | > 100 µM | 4.66 µM | > 100 µM | 28.2 µM | > 100 µM | 69.5 µM | > 100 µM | 8.69 µM | > 100 µM | 7.31 µM | > 100 µM | 7.7 µM | > 100 µM |
| CC/C=C\C/C=C\C[C@H](O)C/C=C1/C(=O)C=C[C@@H]1C/C=C\CCCC(=O)O | 5.2 µM | 34 µM | 3.78 µM | 11.4 µM | 5.99 µM | 20.3 µM | 2.94 µM | 8.71 µM | 5.35 µM | 19.2 µM | 2.96 µM | 9.1 µM | 5.17 µM | 19 µM | 3.17 µM | > 100 µM | 7.86 µM | 22.4 µM | 3.88 µM | 20.1 µM |
| O=C(CN1CCN(c2ccc(Cl)cc2)CC1)N1CCN(c2nnc(-c3ccc(Cl)cc3)c(-c3ccc(Cl)cc3)n2)CC1 | 34 µM | > 100 µM | 9.85 µM | > 100 µM | 20.3 µM | > 100 µM | 23.8 µM | 77.3 µM | > 100 µM | > 100 µM | 28.7 µM | > 100 µM | 80 µM | > 100 µM | > 100 µM | > 100 µM | 20.9 µM | > 100 µM | 10.8 µM | > 100 µM |
| COc1ccc2c(c1)C(=O)c1c-2c(Nc2ccc(C(C)=O)cc2)nc2ccccc12 | 58.7 µM | > 100 µM | 43.7 µM | > 100 µM | > 100 µM | > 100 µM | 2.54 µM | 9.2 µM | 91.1 µM | > 100 µM | 17.7 µM | 78.3 µM | 29 µM | > 100 µM | > 100 µM | > 100 µM | 33.8 µM | > 100 µM | 77.2 µM | > 100 µM |
| Cn1cc(C2=C(c3cccnc3)C(=O)NC2=O)c2ccccc21 | > 25 µM | > 25 µM | > 25 µM | > 25 µM | > 25 µM | > 25 µM | 5.63 µM | > 17.9 µM | > 25 µM | > 25 µM | > 25 µM | > 25 µM | > 25 µM | > 25 µM | > 25 µM | > 25 µM | 8.13 µM | > 25 µM | 14.6 µM | > 25 µM |
| COc1ccc2c(c1)C(=O)C(=O)c1cc(O)c(OC)c(OC)c1-2 | 1.86 µM | 1.96 µM and 3.26 µM |  | 3.83 µM |  | 1.7 µM | 1.56 µM | 1.65 µM and 3.63 µM | 1.55 µM | 1.61 µM and 2.89 µM | 1.66 µM | 1.44 µM and 3.02 µM | 1.74 µM | 1.75 µM and 3.12 µM |  | 3.01 µM | 1.77 µM | 1.65 µM and 3.15 µM | 1.75 µM | 2.81 µM and 3.13 µM |
| O=C(O)CCC(=O)c1ccc2ccc3cccc4ccc1c2c34 |  | > 100 µM |  | > 100 µM |  | > 100 µM |  | > 100 µM |  | > 100 µM |  | > 100 µM |  | > 100 µM |  | > 100 µM |  | > 100 µM |  | > 100 µM |
| O=P(NC12CC3CC(CC(C3)C1)C2)(N1CC1)N1CC1 |  | > 100 µM |  | > 100 µM |  | > 100 µM |  | 74.3 µM |  | > 100 µM |  | > 100 µM |  | > 100 µM |  | > 100 µM |  | > 100 µM |  | > 100 µM |
| C=CC(C)(O)/C=C/C=C(\C)C(CC1OC1(C)C)OC(=O)/C(C)=C\C (stereo not given) |  | > 100 µM |  | > 100 µM |  | > 100 µM |  | > 100 µM |  | > 100 µM |  | > 100 µM |  | > 100 µM |  | > 100 µM |  | > 100 µM |  | > 100 µM |
| Cn1c(O)c(C(/C=C/c2ccccc2)=NCCN=C(/C=C/c2ccccc2)c2c(O)n(C)c(=O)n(C)c2=O)c(=O)n(C)c1=O | 15.1 µM | > 50 µM | 16.9 µM | > 50 µM | 23.3 µM | > 50 µM | 22.5 µM | > 50 µM | 23.5 µM | > 50 µM | 10.2 µM | 29.5 µM | 13.3 µM | > 50 µM | 14.6 µM | > 50 µM | 16.2 µM | > 50 µM | 16.1 µM | > 50 µM |
| O=c1c2ccccc2n2n1CC(O)C2 (stereo not given) |  | > 100 µM |  | > 100 µM |  | > 100 µM |  | > 100 µM |  | > 100 µM | > 100 µM | > 100 µM | > 100 µM | > 100 µM |  | > 100 µM |  | > 100 µM | > 100 µM | > 100 µM |
